Reference: US20260124170A1, “PHARMACEUTICAL COMPOSITION COMPRISING METABOLITE OF ENAVOGLIFLOZIN, AND USE THEREOF” (DAEWOONG PHARMACEUTICAL CO., LTD., priority 2022, published 2026)

Legend:
SGLT1 [1] = target: T1, SGLT1 (Homo sapiens, UniProt P13866); test: SGLT1 inhibition with varied substrate AMG concentration (Dixon / L-B plot); assay type: cell-based; conditions: CHO-SGLT1, varied AMG concentration
T1 construct: expressed in transfected cells
T1 sequence (P13866 1-664): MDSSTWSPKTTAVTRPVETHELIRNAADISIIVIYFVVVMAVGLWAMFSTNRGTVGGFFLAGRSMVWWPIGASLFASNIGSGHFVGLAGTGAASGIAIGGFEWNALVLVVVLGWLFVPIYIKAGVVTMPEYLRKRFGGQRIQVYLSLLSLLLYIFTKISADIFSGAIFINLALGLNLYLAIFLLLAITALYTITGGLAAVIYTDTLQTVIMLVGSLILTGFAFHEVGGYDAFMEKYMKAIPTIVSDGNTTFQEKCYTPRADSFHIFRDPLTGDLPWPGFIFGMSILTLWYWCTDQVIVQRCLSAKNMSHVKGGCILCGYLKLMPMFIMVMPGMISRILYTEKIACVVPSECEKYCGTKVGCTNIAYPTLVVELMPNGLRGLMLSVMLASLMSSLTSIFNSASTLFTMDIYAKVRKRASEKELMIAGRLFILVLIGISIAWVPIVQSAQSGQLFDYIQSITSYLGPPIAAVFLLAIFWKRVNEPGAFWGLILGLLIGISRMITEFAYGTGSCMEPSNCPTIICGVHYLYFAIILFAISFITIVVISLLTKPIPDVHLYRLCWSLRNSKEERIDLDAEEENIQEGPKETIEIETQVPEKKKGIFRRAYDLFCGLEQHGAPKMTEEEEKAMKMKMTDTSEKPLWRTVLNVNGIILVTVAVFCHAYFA
Experimental: (§3) From these, the inhibition mechanism was confirmed, and the inhibition constant was calculated.

SGLT2 [2] = target: T2, SGLT2 (Homo sapiens, UniProt P31639); test: Inhibition of [14C]AMG uptake in SGLT2-overexpressing CHO cells; assay type: cell-based; conditions: CHO-SGLT2 cells, 10 μM [14C]AMG, 2 h, 37° C.
T2 construct: expressed in transfected cells
T2 sequence (P31639 1-672): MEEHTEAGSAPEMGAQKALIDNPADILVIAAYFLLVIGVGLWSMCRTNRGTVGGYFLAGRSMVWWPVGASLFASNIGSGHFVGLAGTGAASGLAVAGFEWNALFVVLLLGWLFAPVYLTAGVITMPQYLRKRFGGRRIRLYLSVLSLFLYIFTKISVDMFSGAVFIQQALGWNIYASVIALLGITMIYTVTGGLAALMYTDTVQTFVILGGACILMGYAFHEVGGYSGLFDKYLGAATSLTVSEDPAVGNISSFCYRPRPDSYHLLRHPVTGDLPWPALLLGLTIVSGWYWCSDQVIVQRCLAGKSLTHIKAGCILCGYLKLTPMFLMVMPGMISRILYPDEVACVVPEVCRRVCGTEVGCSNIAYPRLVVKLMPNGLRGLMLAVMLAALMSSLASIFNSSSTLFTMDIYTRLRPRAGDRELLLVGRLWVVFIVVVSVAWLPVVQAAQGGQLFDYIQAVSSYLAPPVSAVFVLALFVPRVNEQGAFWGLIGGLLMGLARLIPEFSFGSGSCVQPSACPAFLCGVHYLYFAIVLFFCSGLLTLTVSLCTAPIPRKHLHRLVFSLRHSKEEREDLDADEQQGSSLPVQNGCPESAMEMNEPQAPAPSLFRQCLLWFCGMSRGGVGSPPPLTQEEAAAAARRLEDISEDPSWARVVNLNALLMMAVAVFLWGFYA
Experimental: The evaluation was performed in the same manner as the evaluation of SGLT1 inhibition, except that an SGLT2-overexpressing cell line (CHO-SGLT2 stable cells) was used, and the inhibitory evaluation substances described below were used.

SGLT2 [3] = target: T2, SGLT2; test: SGLT2 inhibition with varied substrate AMG concentration (Dixon / L-B plot); assay type: cell-based
Experimental: as §3

SGLT2 [4] = target: T2, SGLT2; test: Change in SGLT2 inhibition according to drug pretreatment time (CHO-SGLT2); assay type: cell-based; conditions: for IC50: CHO-SGLT2
Text: (§1) All data values are expressed as the mean±SD of […].

SGLT1 [5] = target: T1, SGLT1; test: Change in SGLT1 inhibition according to drug pretreatment time (CHO-SGLT1); assay type: cell-based; conditions: pretreatment 0, 1, 2 h; one-way ANOVA
Text: as §1

interleukin-6 (IL-6) = test: Serum IL-6 ELISA in type 1 diabetic rat model; assay type: in vivo; conditions: STZ rats, 6, 24, 48, 72 hours after administration
Experimental: (§2) STZ was administered to Sprague Dawley (SD) male 5-week-old rats on day 0 (G2 to G7, excluding G1), and non-fasting blood glucose levels were measured on day 3 to determine whether type 1 diabetes was induced. On day 7, the experimental substances were administered to each group, and blood and urine samples were collected at 6 h, 24 h, 48 h, and 72 h to measure non-fasting blood glucose levels. On day 14 of the experiment, the experimental animals were fasted for 16 h, and on day 15, 2 g/kg of glucose solution was orally administered after the experimental substances were administered. Thereafter, blood glucose levels were measured at 15, 30, 60, 90, and 120 minutes after glucose administration. After blood collection, the serum was separated, and the IL-6 inflammatory response was evaluated using an interleukin-6 (IL-6) enzyme-linked immunosorbent assay (ELISA) kit.

[6] = system: STZ-induced type 1 diabetic rats; test: Oral glucose tolerance test in type 1 diabetic rat model; assay type: in vivo; conditions: STZ rats, 1 mg/kg, glucose 2 g/kg oral
Experimental: as §2

Compound | Inhibition mechanism, SGLT1 (SGLT1 [1]) | IC50 (SGLT2 [2]) [nM] | Inhibition mechanism, SGLT2 (SGLT2 [3]; CHO-SGLT2, varied AMG concentration) | Ki (SGLT2 [3]; from slope of L-B plot, CHO-SGLT2) [nM] | IC50 (SGLT2 [4]; IC50 according to pretreatment time (nM), SGLT2, 1 h, 1 h pretreatment in sodium-free buffer) [nM] | IC50 (SGLT2 [4]; IC50 according to pretreatment time (nM), SGLT2, 2 h, 2 h pretreatment in sodium-free buffer) [nM] | IC50 (SGLT2 [4]; no pretreatment, read-out: IC50 according to pretreatment time (nM), SGLT2, 0 h) [nM] | Change in SGLT2 inhibition as exposure time increased (SGLT2 [4]; pretreatment 0, 1, 2 h, one-way ANOVA) | Change in SGLT1 inhibition as exposure time increased (SGLT1 [5]) | Change in IL-6 level (interleukin-6 (IL-6)) | Blood glucose level in OGTT [6]
OC[C@H]1O[C@@H](c2ccc(Cl)c(Cc3ccc(O[C@H]4CCOC4)cc3)c2)[C@H](O)[C@@H](O)[C@@H]1O [Empagliflozin] | Competitive inhibition | 6.65 ± 2.92 | Competitive inhibition | 5.15 | 6.67 ± 1.29 | 7.35 ± 0.82 | 7.2 ± 2.33 | did not increase or significantly change | did not show any significant change or increase in inhibition | – | –
CCOc1ccc(Cc2cc([C@@H]3O[C@H](SC)[C@@H](O)[C@H](O)[C@H]3O)ccc2Cl)cc1 [Sotagliflozin] | – | – | – | – | – | – | – | – | – | slight decrease | lowering of the blood glucose level was observed
